Measured values: PubChem BioAssay AID1259407 (Chemical Carcinogenesis Research Information System (CCRIS), 2018)
Active and inactive are the calls of the source. The rule behind the calls is not given here.

System: CCRIS mutagenicity, Ames/micronucleus/aberration tests
Test: CCRIS mutagenicity studies
Details: Test System: AMES SALMONELLA TYPHIMURIUM
[1] = Strain/Indicator: TA98, Metabolic Activation: NONE, Method: PREINCUBATION
[2] = Strain/Indicator: TA98, Metabolic Activation: NONE, Method: STANDARD PLATE
[3] = Strain/Indicator: TA98, Metabolic Activation: RAT, LIVER, S-9, AROCLOR 1254, Method: STANDARD PLATE
[4] = Strain/Indicator: TA100, Metabolic Activation: NONE, Method: STANDARD PLATE
[5] = Strain/Indicator: TA100, Metabolic Activation: RAT, LIVER, S-9, AROCLOR 1254, Method: STANDARD PLATE

Measured: mutagenic call

O=C1c2ccccc2-c2cc([N+](=O)[O-])ccc21
active: Strain/Indicator: TA98 (1,8-DNP6), Metabolic Activation: NONE, Method: PREINCUBATION active; positive | Strain/Indicator: TA98(NR), Metabolic Activation: NONE, Method: PREINCUBATION active; positive | Strain/Indicator: TA98(NR), Metabolic Activation: RAT LIVER S-9 (10%), Method: PREINCUBATION active; positive | Strain/Indicator: TA98(NR), Metabolic Activation: RAT LIVER S-9, 3-METHYLCHOLANTHRENE (10%), Method: PREINCUBATION active; positive | Strain/Indicator: TA98(NR), Metabolic Activation: RAT LIVER S-9, BETA-NAPHTHAFLAVONE (10%), Method: PREINCUBATION active; positive | Strain/Indicator: TA98(NR), Metabolic Activation: RAT LIVER S-9, PCB (10%), Method: PREINCUBATION active; positive | Strain/Indicator: TA98(NR), Metabolic Activation: RAT LIVER S-9, PHENOBARBITAL (10%), Method: PREINCUBATION active; positive | [1] active; positive | [2] active; positive | [3] active; positive | Strain/Indicator: TA7002, Metabolic Activation: NONE, Method: PREINCUBATION active; positive | Strain/Indicator: TA7003, Metabolic Activation: NONE, Method: PREINCUBATION active; positive | Strain/Indicator: TA7004, Metabolic Activation: NONE, Method: PREINCUBATION active; positive | Strain/Indicator: TA7005, Metabolic Activation: NONE, Method: PREINCUBATION active; positive | Strain/Indicator: TA7006, Metabolic Activation: NONE, Method: PREINCUBATION active; positive
inactive: [4] inactive; negative | [5] inactive; negative | Strain/Indicator: TA7001, Metabolic Activation: NONE, Method: PREINCUBATION inactive; negative

Cc1cc(Cl)ccc1OCC(=O)O
inactive: Strain/Indicator: TA97, Metabolic Activation: NONE, Method: STANDARD PLATE inactive; negative | Strain/Indicator: TA97, Metabolic Activation: RAT, LIVER, S-9, AROCLOR 1254, Method: STANDARD PLATE inactive; negative | Strain/Indicator: TA97A, Metabolic Activation: NONE, Method: STANDARD PLATE inactive; negative | Strain/Indicator: TA97A, Metabolic Activation: RAT, LIVER, S-9, AROCLOR 1254, Method: STANDARD PLATE inactive; negative | [2] inactive; negative | [3] inactive; negative | [4] inactive; negative | [5] inactive; negative | Strain/Indicator: TA102, Metabolic Activation: NONE, Method: STANDARD PLATE inactive; negative | Strain/Indicator: TA102, Metabolic Activation: RAT, LIVER, S-9, AROCLOR 1254, Method: STANDARD PLATE inactive; negative | Strain/Indicator: TA1535, Metabolic Activation: NONE, Method: STANDARD PLATE inactive; negative | Strain/Indicator: TA1535, Metabolic Activation: RAT, LIVER, S-9, AROCLOR 1254, Method: STANDARD PLATE inactive; negative | Strain/Indicator: TA1537, Metabolic Activation: NONE, Method: STANDARD PLATE inactive; negative | Strain/Indicator: TA1537, Metabolic Activation: RAT, LIVER, S-9, AROCLOR 1254, Method: STANDARD PLATE inactive; negative | Strain/Indicator: TA1538, Metabolic Activation: NONE, Method: STANDARD PLATE inactive; negative | Strain/Indicator: TA1538, Metabolic Activation: RAT, LIVER, S-9, AROCLOR 1254, Method: STANDARD PLATE inactive; negative

CC(C)c1ccccc1OP(=O)(Oc1ccccc1)Oc1ccccc1
inactive: Strain/Indicator: TA97, Metabolic Activation: HAMSTER, LIVER, S-9, AROCLOR 1254 (10 OR 30%), Method: PREINCUBATION inactive; negative | Strain/Indicator: TA97, Metabolic Activation: NONE, Method: PREINCUBATION inactive; negative | Strain/Indicator: TA97, Metabolic Activation: RAT, LIVER, S-9, AROCLOR 1254 (10 OR 30%), Method: PREINCUBATION inactive; negative | Strain/Indicator: TA98, Metabolic Activation: HAMSTER, LIVER, S-9, AROCLOR 1254 (10 OR 30%), Method: PREINCUBATION inactive; negative | [1] inactive; negative | Strain/Indicator: TA98, Metabolic Activation: RAT, LIVER, S-9, AROCLOR 1254 (10 OR 30%), Method: PREINCUBATION inactive; negative | Strain/Indicator: TA100, Metabolic Activation: HAMSTER, LIVER, S-9, AROCLOR 1254 (10 OR 30%), Method: PREINCUBATION inactive; negative | Strain/Indicator: TA100, Metabolic Activation: NONE, Method: PREINCUBATION inactive; negative | Strain/Indicator: TA100, Metabolic Activation: RAT, LIVER, S-9, AROCLOR 1254 (10 OR 30%), Method: PREINCUBATION inactive; negative | Strain/Indicator: TA1535, Metabolic Activation: HAMSTER, LIVER, S-9, AROCLOR 1254 (10 OR 30%), Method: PREINCUBATION inactive; negative | Strain/Indicator: TA1535, Metabolic Activation: NONE, Method: PREINCUBATION inactive; negative | Strain/Indicator: TA1535, Metabolic Activation: RAT, LIVER, S-9, AROCLOR 1254 (10 OR 30%), Method: PREINCUBATION inactive; negative

O=c1oc2ccccc2c(O)c1C1CCCc2ccccc21 (centres undefined)
inactive: Strain/Indicator: TA97, Metabolic Activation: NONE inactive; negative | Strain/Indicator: TA97, Metabolic Activation: S-9 inactive; negative | Strain/Indicator: TA98, Metabolic Activation: NONE inactive; negative | Strain/Indicator: TA98, Metabolic Activation: S-9 inactive; negative | Strain/Indicator: TA100, Metabolic Activation: NONE inactive; negative | Strain/Indicator: TA100, Metabolic Activation: S-9 inactive; negative | Strain/Indicator: TA102, Metabolic Activation: NONE inactive; negative | Strain/Indicator: TA102, Metabolic Activation: S-9 inactive; negative
